Reference: patent publication US9828630B2, “Methods of enhancing genetic diagnosis” (BioLamina AB, priority 2011, dated 2017)

Legend:
human ES cells [1] = experiment: Cell adhesion assay, 1 hour after plating on coated plates; format: cell-based
Protocol: (§1) The assay was performed as described (Extracellular Matrix Protocols, 2000). Briefly, 96-well plates were coated by extracellular matrix proteins as described above and blocked by O3 medium containing bovine serum albumin. The ES cells were plated at a cell density of 600 cell/mm^2 upon extracellular matrix-coated plates and were left to adhere for either 1 hour or 1 day at the cell incubator. Non-adherent cells were washed away, and adherent cells were fixed for 20 min by 5% glutaraldehyde, stained by 0.1% Crystal Violet.
Briefly, 96-well plates were coated by extracellular matrix proteins as described above and blocked by O3 medium containing bovine serum albumin. The ES cells were plated at cell density of 50,000 cells/cm^2 onto extracellular matrix-coated plates and left to adhere for 1 hour in a cell incubator. After that the plates were washed 3 times with the medium to remove the non-adherent cells, and then the adherent cells were fixed for 20 minutes by 5% glutaraldehyde, stained by 0.1% Crystal Violet. (Kebo Lab, Spanga, Sweden, http://www.kebolab.se). After one hour and 3 washes with water, Crystal Violet was extracted with 10% acetic acid and quantified by measuring optical density at 570 nm. All the experiments were performed in quadruplicate.

human ES cells [2] = experiment: Cell survival assay, 24 hours (1 day) after plating from single cell suspension; format: cell-based; conditions: for adhesion / survival without additives compared with ROCK inhibitor treated cells: 1 day (24 hours) after plating; for survival / attachment of dissociated hES cells 24 hours (one day) after plating: single cell suspension, O3 medium
Protocol: as §1
The survival assay was performed as described for the cell adhesion assay above, except that the cells were left in the cell incubator for 24 hours. For inhibition of survival assay, the cells were kept in a medium with function blocking antibodies at the concentrations recommended by the manufacturer or pathway inhibitors at concentrations indicated in the text for 30 minutes, and then plated on the coated dishes. All the experiments were performed in quadruplicate.
Pluripotent hES cells express α1, α5, β1, β2 and γ1 laminin chains. To compare the adhesion and clonal survival of hES cells plated from single cell suspension to different coating substrata, hES cells growing as monolayers on LN-511 or as clusters on a feeder layer were trypsinized into single cell suspension in O3 medium and plated on cell culture dishes coated with Matrigel, LN-111, LN-511, LN-521 or a mixture of LN-511 and LN-521, in the absence or presence of a ROCK inhibitor (Y-27632) and analyzed after 24 hours.

OCT4 = experiment: FACS analysis for OCT4; format: cell-based, human; conditions: after several single cell suspension passages, O3 medium, FIG. 9 and 10
Protocol: OCT4 expression was analyzed as described in Ludwig, T. E. et al. Derivation of human embryonic stem cells in defined conditions. Nat. Biotechnol. 24, 185-187 (2006). Cells were run on FACSCalibur Flow Cytometer (Becton Dickinson). Data were analyzed with CellQuest software (Becton Dickinson).

SCID mouse = experiment: Teratoma formation in SCID mice; format: in vivo; conditions: HS181 13, H1 12 passages in O3; H1 7 passages in TeSR2
Protocol: Teratoma formation experiments were performed by implantation of approximately 10^6 cells beneath the testicular capsule of a young (7-week-old) severe combined immunodeficiency (SCID) mouse. Three animals per each cell line were used. Teratoma growth was observed by weekly palpation, and the mice were sacrificed eight weeks after the implantation. The teratomas were fixed, and sections were stained with hematoxylin and eosin (HE) or with hematoxylin, eosin and PAS (HE-PAS). […] All animal experiments were performed at the infection-free animal facility of the Karolinska University Hospital in accordance with ethical committee approval.

hES cells = experiment: In vivo imaging and migration assay; format: cell-based, human
Protocol: 24-well plates were coated by extracellular matrix proteins and blocked by O3 medium containing bovine serum albumin. The ES cells were plated at cell density of 30,000-40,000 cells/cm^2 onto extracellular matrix-coated plates and left to adhere for half an hour in a cell incubator. After that, the plate was transferred into high content imaging system Operetta (PerkinElmer) equipped with environmental control unit, which allowed to keep 37° C., 5% CO2. For two movies that were made, the brightfield images were taken once in 15 minutes during 24 hours after plating using Harmony software (PerkinElmer), exported, and analyzed using ImageJ software (NIH, the US). For migration assay the images were taken every seven minutes during 18 hours after plating. Images acquired between the fifth and seventh hours after plating were analyzed using MTrackJ plug-in (University Medical Center, Rotterdam, The Netherlands). 100 attached cells on each coating were traced and mean distances from the current to the previous point of the track were calculated. Error bars show standard error of the mean s.e.m. (n=100).

human ES cells [3] = experiment: Cell survival assay, 24 hours (1 day) after plating from single cell suspension; format: cell-based; conditions: 10 μM Y-27632, 40,000 cells per 1 cm^2, 24 hours

Substance: LN-521: protein formed by joining laminin α5, β2 and γ1 chains; human recombinant, produced in HEK293 cells
- adhesion of human ES cells after 1 hour (human ES cells [1]; O3 medium without any additives, without Y-27632, FIG. 6): roughly the same
- spreading of the cells after one hour compared with Matrigel or LN-111 (human ES cells [1]; dissociated hES cells, not shown): clearly better
- adhesion / survival without additives compared with ROCK inhibitor treated cells (human ES cells [2]): similar
- adhesion / survival without additives compared with ROCK inhibitor treated cells (human ES cells [2]; listed as LN-532): no ROCK inhibitor is necessary
- survival of cells compared with LN-511 (human ES cells [2]; 24 hours, no ROCK inhibitor): significantly higher
- cell shape 24 hours after plating on LN-521 (human ES cells [2]; absence or presence of ROCK inhibitor): round
- survival relative to Matrigel (human ES cells [2]; exogenous bFGF removed from the O3 medium): 20 times
- survival 24 hours after plating (human ES cells [2]; medium lacking all growth factors of the TeSR1 formulation (bFGF, LiCl, GABA, pipecolic acid, TGFβ)): survived
- survival after 24 hours relative to LN-511 (human ES cells [2]; no ROCK inhibitor): three
- survival / attachment of dissociated hES cells 24 hours (one day) after plating (human ES cells [2]; no ROCK inhibitor): did so as single cells
- survival / attachment of dissociated hES cells 24 hours (one day) after plating (human ES cells [2]; no ROCK inhibitor, listed as human r-laminin-521): survived
- survival / attachment of dissociated hES cells 24 hours (one day) after plating (human ES cells [2]; no ROCK inhibitor, listed as laminin-521): survived and started to proliferate
- percentage of Oct4 positive (pluripotent) cells compared with Matrigel (OCT4): much higher percentage
- tissues in teratomas formed in SCID mice (SCID mouse): all three germ lineages
- cell migration compared with Matrigel (imaging) (hES cells; 24 hours imaging): much faster
- motility of hES cells compared with other coatings (hES cells; between fifth and seventh hours after plating, FIG. 14): higher
- survival of Y-27632 treated cells compared with Matrigel (human ES cells [3]): survived better
